Target: Protein farnesyltransferase subunit beta/geranylgeranyltransferase type-1 subunit alpha (Mus musculus, UniProt Q61239+Q8K2I1)
Assay: Inhibition of H-Ras transformed NIH-3T3-cell proliferation

| Compound | EC50 |
| --- | --- |
| CC(=O)c1ccc(-c2cc(C#N)ccc2COCc2cncn2Cc2ccc(C#N)cc2)cc1 [4'-acetyl-6-(((1-(4-cyanobenzyl)-1H-imidazol-5-yl)methoxy)methyl)biphenyl-3-carbonitrile] | 77 nM |
| N#Cc1ccc(Cn2cncc2COc2ccc(C#N)c(-c3cccc4ccccc34)c2)cc1 [4-((1-(4-cyanobenzyl)-1H-imidazol-5-yl)methoxy)-2-(naphthalen-1-yl)benzonitrile] | 1.2 nM |
| N#Cc1ccc(COCc2cncn2Cc2ccc(C#N)cc2-c2cccc3ccccc23)cc1 [4-[5-(4-cyano-benzyloxymethyl)-imidazol-1-ylmethyl]-3-naphthalen-1-yl-benzonitrile] | 461 nM |
| CCOc1cccc(-c2cc(C#N)ccc2COCc2cncn2Cc2ccc(C#N)nc2)c1 [5-((5-(((5-cyano-3'-ethoxybiphenyl-2-yl)methoxy)methyl)-1H-imidazol-1-yl)methyl)picolinonitrile] | 17 nM |
| N#Cc1ccc(COCc2cncn2Cc2ccc(C#N)nc2)c(-c2ccc3c(c2)OCO3)c1 [5-[5-(2-Benzo[1,3]dioxol-5-yl-4-cyano-benzyloxymethyl)-imidazol-1-ylmethyl]-pyridine-2-carbonitrile] | 16 nM |
| N#Cc1ccc(Cn2cncc2COCc2ccc(C#N)cc2-c2ccc3c(c2)OCO3)nc1 [6-((5-((2-(benzo[d][1,3]dioxol-5-yl)-4-cyanobenzyloxy)methyl)-1H-imidazol-1-yl)methyl)nicotinonitrile] | 29 nM |
| CCOc1cccc(-c2cc(C#N)ccc2COCc2cncn2Cc2ccc(Cl)cc2)c1 [6-(((1-(4-chlorobenzyl)-1H-imidazol-5-yl)methoxy)methyl)-3'-ethoxybiphenyl-3-carbonitrile] | 34 nM |
| N#Cc1ccc(Cn2cncc2COCc2ccc(C#N)cc2-c2ccc(C(F)(F)F)cc2)cc1 [6-(((1-(4-cyanobenzyl)-1H-imidazol-5-yl)methoxy)methyl)-4'-(trifluoromethyl)biphenyl-3-carbonitrile] | 1.6 nM |
| N#Cc1ccc(OCc2cncn2Cc2ccc(C#N)c(-c3cccc4ccccc34)c2)nc1 [6-[3-(4-Cyano-3-naphthalen-1-yl-benzyl)-3H-imidazol-4-ylmethoxy]-nicotinonitrile] | 60 nM |
| N#Cc1ccc(Cn2cncc2COCc2ccc(C#N)cc2-c2cccc(Cl)c2)nc1 [6-[5-(3''-Chloro-5-cyano-biphenyl-2-ylmethoxymethyl)-imidazol-1-ylmethyl]-nicotinonitrile] | 155 nM |

Reference: BindingDB's records for doi:10.1016/j.bmcl.2004.08.011 (Abbott Laboratories, 2004)
